Results reported in US20240115649A1, “CASPASE INHIBITION TO ENHANCE REGENERATION AND REPAIR AFTER SKIN OR GUT INJURY AND TO TREAT BACTERIAL OR VIRAL INFECTIONS” (The Johns Hopkins University, priority 2020, published 2024).

Columns and labels:
[1] = test system: monocytes, macrophages and neutrophils isolated from the infected skin; assay: Flow cytometry of single-cell suspensions from CA-MRSA-infected skin; type: in vivo, mice
Method: Flow cytometry. 10-mm skin punch biopsies were collected, minced and enzymatically digested in 3 mL RPMI containing 100 μg/mL DNaseI (Sigma-Aldrich) and 1.67 Wunsch U/ml Liberase TL (Roche) for 1 hour at 37° C. and shaken at 140 rpm. Single-cell suspensions were obtained after filtering the digested samples through a 40-μm cell filter using a 3 mL syringe plunger and cells were then washed in RPMI. […] The cells were further labeled for intracellular pMLKL, which was detected via anti-pMLKL mAb that was biotinylated with Biotin conjugation/Fast/Type A kit (Abcam), as per manufacturer's instructions, along with other intracellular mAbs against IL-1β and TNF (Supplemental Table S1). […] For immunophenotyping of Langerhans cells and monocyte-derived dendritic cells (DCs), cells were first gated on CD45^+ and then CD207^+CD103^− (Langerhans cells) and CD45^+CD11c^+CD115^+ monocyte-derived DCs (FIG. 11), modified from previously described methods (61). The absolute numbers of the respective cell populations were calculated as (Total number of live cells X [% of cell population/100]).

neutrophils = assay: Flow cytometry of skin of Q-VD-OPh-treated mice; type: in vivo; conditions: Q-VD-OPh i.p.; unwounded skin; vs vehicle controls
Method: Flow Cytometry. Cell suspensions were prepared by digesting mouse skin tissue in a cocktail consisting of Liberase TL (Roche, 5401020001), DNase I (Sigma, DN25) and antibiotics (Invitrogen, 15140) in RPMI 1640 (Gibco, 11875093). For FACS, cells were washed and first viability stained using the Zombie Aqua dye (BioLegend, 423101). […] Finally, cells were resuspended in BD stabilizing fixative prior to FACS. All flow cytometry experiments were performed on a BD LSR II and downstream analysis of data was performed using Cytobank.

BMDMs = assay: BMDM cultures with live S. aureus ± caspase inhibitors; conditions: Q-VD-OPH 10 μg/mL, live S. aureus 6 hours
[2] = Q-VD-OPH treated TNF^−/− mice, day 1
[3] = Q-VD-OPH treated WT mice, day 1
[4] = TNF^−/− mice, day 1, vs untreated
[5] = WT mice, infected skin day 1, vs untreated

CC(C)[C@H](NC(=O)c1ccc2ccccc2n1)C(=O)N[C@@H](CC(=O)O)C(=O)COc1c(F)cccc1F [Q-VD-OPH, Quinoline-val-asp-difluorophenoxymethyl ketone]
pMLKL+ MFI [1, 2]: 540
pMLKL+ total cells, absolute numbers [1, 2]: 1.5×10^4 cells
pMLKL+ total cells, percentage [1, 2]: 15%
pMLKL+ MFI [1, 3]: 2250
pMLKL+ total cells, absolute numbers [1, 3]: 1.0×10^5 cells
pMLKL+ total cells, percentage [1, 3]: 81%
percentages and absolute number of macrophages ([1]; TNF^−/− mice, day 1): statistically increased
percentages and absolute number of monocytes ([1]; TNF^−/− mice, day 1, compared with Q-VD-OPH treated WT mice): no increase
necroptosis (pMLKL+) total leukocytes: MFI, percentages and absolute numbers ([1]; TNF^−/− mice, day 1, vs TNF^−/− untreated): significantly greater
early apoptotic (Annexin V+) neutrophils [1, 4]: significantly decreased
early apoptotic cells (Annexin V+) of total leukocytes [1, 4]: significantly decreased
percentages and absolute number of neutrophils ([1]; TNF^−/− mice, infected skin day 1, vs untreated or Q-VD-OPH treated WT mice): significantly reduced
intracellular pro-IL-1β: MFI and percentages of total leukocytes (CD45+pro-IL-1β+) ([1]; WT mice, day 1, especially macrophages and neutrophils but not monocytes): increased mean fluorescence intensity (MFI) and percentages of total leukocytes
TNF+ macrophages ([1]; WT mice, day 1, vs untreated): significantly greater
TNF+ monocytes ([1]; WT mice, day 1, vs untreated): significantly greater
TNF+ neutrophils ([1]; WT mice, day 1, vs untreated): significantly greater
TNF+ total leukocytes (CD45+TNF+): MFI, percentages and absolute number ([1]; WT mice, day 1, vs untreated): significantly greater
early apoptotic (Annexin V+) monocytes, percentages and absolute numbers ([1]; WT mice, day 1, vs untreated): significantly decreased
early apoptotic (Annexin V+) neutrophils, percentages and absolute numbers ([1]; WT mice, day 1, vs untreated): significantly decreased
early apoptotic cells (Annexin V+) of total leukocytes, percentages and absolute numbers ([1]; WT mice, day 1, vs untreated): significantly decreased
necroptosis (pMLKL+) macrophages ([1]; WT mice, day 1, vs untreated): significantly greater
necroptosis (pMLKL+) total leukocytes: MFI, percentages and absolute numbers ([1]; WT mice, day 1, vs untreated): significantly greater
percentages and absolute numbers of neutrophils [1, 5]: no differences
percentages of macrophages [1, 5]: statistically increased
percentages of monocytes [1, 5]: statistically increased
neutrophil levels in the skin (neutrophils): higher neutrophil levels in the skin
necroptosis (western blot for pMLKL and MLKL) (BMDMs): necroptosis was increased
percentages of TNF+ BMDMs (BMDMs; Emricasan 9 μg/mL): 33.53%
viable cells (Zombie UV negative cells) (BMDMs; Emricasan 9 μg/mL, no significant differences vs no treatment): ~80%
